Data reported in patent publication US7863332B2, “Biaromatic compound activators of PPARγ receptors and cosmetic/pharmaceutical compositions comprised thereof” (Galderma Research & Development, priority 2004, dated 2011).
pKd: −log10 of the molar value.

How the values were obtained:
Type in all cases: cell-based
PPARγ = molecular target: T1, PPARγ (Homo sapiens, UniProt P37231); test: Cross-curve PPAR transactivation test (PPARγ); details: HeLN cells, Gal-hPPARγ, luciferase reporter; cross curves against reference agonist, Schild regression; n.a means not active; read-out: PPAR gamma Kd app
T1 sequence (P37231 238-505 limits assumed): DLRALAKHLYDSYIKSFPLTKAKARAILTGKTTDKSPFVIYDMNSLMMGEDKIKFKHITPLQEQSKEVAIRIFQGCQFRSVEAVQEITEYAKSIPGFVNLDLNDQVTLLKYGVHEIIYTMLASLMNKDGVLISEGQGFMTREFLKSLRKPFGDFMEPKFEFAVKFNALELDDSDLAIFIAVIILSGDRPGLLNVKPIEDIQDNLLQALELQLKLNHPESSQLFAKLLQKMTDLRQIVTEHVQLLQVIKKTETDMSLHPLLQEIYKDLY
Description: (§1) The activation of PPAR receptors with an agonist (activator) in HeLN cells leads to the expression of a reporter gene, luciferase, which, in the presence of a substrate, generates light. The modulation of the PPAR receptors is measured by quantifying the luminescence produced after incubating the cells in the presence of a reference agonist. The ligands displace the agonist from its site. The measurement of the activity is performed by quantifying the light produced. This measurement makes it possible to determine the modulatory activity of the compounds according to the invention by determining the constant that is the affinity of the molecule for the PPAR receptor. Since this value can fluctuate depending on the basal activity and the expression of the receptor, it is referred to as Kd apparent (KdApp in nM).
(§2) To determine this constant, “cross curves” of the test product against a reference agonist are produced in a 96-well plate: 10 concentrations of the test product plus a concentration 0 are arranged in a line, and 7 concentrations of the agonist plus a concentration 0 are arranged in a column. This is 88 measurement points for 1 product and 1 receptor. The remaining 8 wells are used for repeatability controls.
(§3) Measurements are also taken for total agonist controls with the same products.
(§4) The HeLN cell lines used are stable transfectants containing the plasmids ERE-βGlob-Luc-SV-Neo (reporter gene) and PPAR (α, δ, γ) Gal-hPPAR. These cells are inoculated into 96-well plates at a rate of 10 000 cells per well in 100 μl of DMEM medium without phenol red and supplemented with 10% of defatted calf serum. The plates are then incubated at 37° C. and 7% CO2 for 16 hours.
(§5) The various dilutions of the test products and of the reference ligand are added at a rate of 5 μl per well. The plates are then incubated for 18 hours at 37° C. and 7% CO2. The culture medium is removed by turning over and 100 μl of a 1:1 PBS/luciferin mixture are added to each well. After 5 minutes, the plates are read by the luminescence detector.

PPARα = molecular target: T2, PPARα (Homo sapiens, UniProt Q07869); test: Cross-curve PPAR transactivation test (PPARα); details: HeLN cells, Gal-hPPARα, luciferase reporter; cross curves against reference agonist, Schild regression; n.a means not active; read-out: PPAR alpha Kd app
T2 sequence (Q07869 202-468 limits assumed): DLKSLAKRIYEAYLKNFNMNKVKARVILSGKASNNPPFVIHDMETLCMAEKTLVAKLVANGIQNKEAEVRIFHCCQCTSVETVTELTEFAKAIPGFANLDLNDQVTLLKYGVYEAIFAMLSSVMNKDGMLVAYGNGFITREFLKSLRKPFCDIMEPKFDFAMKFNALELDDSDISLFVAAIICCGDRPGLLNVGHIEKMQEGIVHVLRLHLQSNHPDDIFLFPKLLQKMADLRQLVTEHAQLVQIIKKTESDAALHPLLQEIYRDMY
Description: as §1, §2, §3, §4, §5

PPARδ = molecular target: T3, PPARδ (Homo sapiens, UniProt Q03181); test: Cross-curve PPAR transactivation test (PPARδ); details: HeLN cells, Gal-hPPARδ, luciferase reporter; cross curves against reference agonist, Schild regression; n.a means not active; read-out: PPARs delta Kd app
T3 sequence (Q03181 171-441 limits assumed): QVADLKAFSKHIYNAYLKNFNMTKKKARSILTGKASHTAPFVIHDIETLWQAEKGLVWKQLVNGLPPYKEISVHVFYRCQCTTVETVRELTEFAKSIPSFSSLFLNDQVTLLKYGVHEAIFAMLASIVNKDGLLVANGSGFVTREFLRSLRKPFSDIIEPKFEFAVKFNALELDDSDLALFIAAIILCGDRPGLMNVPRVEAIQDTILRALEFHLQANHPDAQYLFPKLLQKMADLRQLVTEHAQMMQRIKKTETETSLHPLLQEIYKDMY
Description: as §1, §2, §3, §4, §5

Row | Structure (SMILES) | pKd (PPARγ) | pKd (PPARα) | pKd (PPARδ)
1 | CCCCCCCNC(=O)N(C)c1cccc(-c2ccc(CCC(=O)O)c(F)c2)c1 [Example 3, 3-[3-fluoro-3′-(3-heptyl-1-methylureido)biphenyl-4-yl]propanoic acid] | 8.40 | 5.70 | 5.70
2 | CCCCc1ccc(NC(=O)N(C)c2cccc(-c3ccc(CCC(=O)O)cc3)c2)cc1 [Example 14, 3-{3′-[3-(4-butylphenyl)-1-methylureido]biphenyl-4-yl}propanoic acid] | 8.70 | 6.30 | 6.30
3 | CCCCCCCNC(=O)N(C)c1cccc(-c2ccc(CCC(=O)O)cc2OCCOC)c1 [Example 15, 3-[3′-(3-heptyl-1-methylureido)-2-(2-methoxyethoxy)biphenyl-4-yl]propanoic acid] | 8.70 | 5.70 | 5.70
4 | CCCCCCCNC(=O)N(C)c1cccc(-c2ccc(CCC(=O)O)cc2OCCCCl)c1 [Example 17, 3-[2-(3-chloropropoxy)-3′-(3-heptyl-1-methylureido)biphenyl-4-yl]propanoic acid] | 9.00 | 6.30 | 
5 | CCCCCCCNC(=O)N(C)c1cccc(-c2ccc(CCC(=O)O)cc2OC)c1 [Example 18, 3-[3′-(3-heptyl-1-methylureido)-2-methoxybiphenyl-4-yl]propanoic acid] | 8.40 | 5.70 | 6.60
6 | CCCCOc1ccc(NC(=O)N(C)c2cccc(-c3ccc(CCC(=O)O)cc3)c2)cc1 [Example 33, 3-{3′-[3-(4-butoxyphenyl)-1-methylureido]biphenyl-4-yl}propanoic acid] | 8.40 |  | 6.00
7 | CCCCCCCNC(=O)N(C)c1cccc(-c2ccc(CCC(=O)O)cc2OCC2CC2)c1 [Example 35, 3-[2-cyclopropylmethoxy-3′-(3-heptyl-1-methylureido)biphenyl-4-yl]propanoic acid] | 9.00 |  | 6.00
8 | CCCCCCCNC(=O)N(C)c1cccc(-c2ccc(CCC(=O)O)cc2OCCCCO)c1 [Example 40, 3-[3′-(3-heptyl-1-methylureido)-2-(4-hydroxybutoxy)biphenyl-4-yl]propanoic acid] | 9.00 | 5.10 | 
9 | CCCCCCCNC(=O)N(C)c1cccc(-c2ccc(CCC(=O)O)cc2OCc2ccccc2)c1 [Example 42, 3-[2-benzyloxy-3′-(3-heptyl-1-methylureido)biphenyl-4-yl]propanoic acid] | 9.00 | 5.40 | 
10 | CCCCCCCNC(=O)N(C)c1cccc(-c2ccc(CCC(=O)O)cc2OCc2cccc(F)c2)c1 [Example 43, 3-[2-(3-fluorobenzyloxy)-3′-(3-heptyl-1-methylureido)biphenyl-4-yl]propanoic acid] | 8.70 | 5.70 | 
11 | CCCCCCCNC(=O)N(C)c1cccc(-c2ccc(CCC(=O)O)cc2OCCCCC)c1 [Example 45, 3-[3′-(3-heptyl-1-methylureido)-2-pentyloxybiphenyl-4-yl]propanoic acid] | 9.60 | 6.92 | 
12 | CCCCCNC(=O)N(C)c1cccc(-c2ccc(CCC(=O)O)cc2OCCCCC)c1 [Example 46, 3-[3′-(1-methyl-3-pentylureido)-2-pentyloxybiphenyl-4-yl]propanoic acid] | 9.60 | 7.52 | 
13 | CCCCCCCNC(=O)N(C)c1cccc(-c2ccc(CCC(=O)O)cc2OCCOCC)c1 [Example 47, 3-[2-(2-ethoxyethoxy)-3′-(3-heptyl-1-methylureido)biphenyl-4-yl]propanoic acid] | 8.70 | 6.00 | 
14 | CCCCOc1cc(CCC(=O)O)ccc1-c1cccc(N(C)C(=O)Nc2ccccc2)c1 [Example 48, 3-[2-butoxy-3′-(1-methyl-3-phenylureido)biphenyl-4-yl]propanoic acid] | 8.70 | 5.70 | 
15 | CCCCCNC(=O)N(C)c1cccc(-c2ccc(CCC(=O)O)cc2OCCOCC)c1 [Example 49, 3-[2-(2-ethoxyethoxy)-3′-(1-methyl-3-pentylureido)biphenyl-4-yl]propanoic acid] | 8.70 | 5.70 | 
